Results on 27 compounds are retold here after article PMC10343686, “Integration of Hybridization Strategies in Pyridine–Urea Scaffolds for Novel Anticancer Agents: Design, Synthesis, and Mechanistic Insights” (Molecules, 2023).

A word on the melting point: it is the temperature of the solid-liquid transition. As usually defined, the GI50 is the concentration giving 50% growth inhibition.

The subject of one data set is HCT116 cancer cell line. In words: SRB assay of antiproliferative activity, HCT116. It counts as cell-based. Conditions: Homo sapiens, HCT-116, 48 h, mean ± standard error (n = 3). On the procedure: (§1) Breast cancer cell line MCF7 and colorectal carcinoma cell line HCT116 were obtained from the National Cancer Institute (MTA Number: 2702-09). Cells were cultured in complete RPMI 1640 medium (Hyclone, Logan, UT, USA) containing 10% FBS (Hyclone, Logan, UT, USA) in an atmosphere of 5% CO 2/100% humidity at 37 °C. Each investigated compound was diluted using DMSO to make a stock solution. It was treated by mixing with cell culture medium (RPMI1640 containing 10% FBS (Hyclone, Logan, UT, USA)) so that the final concentration of the drug was 0.001, 0.01, 0.1, 1, or 10 uM. There was no compound precipitated upon treatment in the culture medium.
(§2) The SRB assay was performed following the methodology of previously published studies. In brief, the cells (100 μL medium containing 5000 HCT116 or 10,000 MCF7 cells/well) were incubated in 96-well microtiter plates. After 24 h, the drug was added (100 μL) to each well and the cultures were incubated for 48 h at 37 °C. The cells were fixed in 50% TCA (50 μL per well) for 1 h at 4 °C. The liquid was removed from the plate, which was then rinsed five times with water and allowed to dry at room temperature (RT). Washed cells were stained for 10 min at RT with 0.4% SRB (100 μL per well). After staining, the plate was washed 3 times with 1% glacial acetic acid and dried at RT. The SRB stain was then solubilized in 10 mM Tris and absorbances were read at 515 nm. The effect of the drugs was expressed in terms of the GI50 (the concentration resulting in 50% maximal inhibition of cell proliferation). […]
In general terms: In SRB staining, fixed cells bind dye roughly in proportion to their protein.

The subject of the next data set is normal cell line HEK293. In words: SRB assay of antiproliferative activity on normal cells. Format: cell-based. Conditions: HEK293, 48 h, Figure 3. On the procedure:
The antiproliferative activity of compounds 8a, 8h, and 8i was evaluated in a sulforhodamine B (SRB) assay using normal cell line HEK293 cells. Cells were treated for 48 h under the same conditions used for the assessment of the antiproliferative activity on the cancer cells.

Data set [1] relates to MCF7 cancer cell line. The data set can be described thus: SRB assay of antiproliferative activity, MCF7. To be noted: for GI50: Homo sapiens, MCF7, SRB assay, 48 h, mean ± standard error (n = 3). Format: cell-based. On the procedure: as §1, §2
The subject of data set [2] is MCF7 cancer cell line. Details: method as in PMID 35217379. Conditions: cited from earlier work.

“Also recorded” adds a separate entry of the source. Like-named read-outs stand apart in the source and are kept apart here.

In the case of `COc1n[nH]c2ccc(-c3ccnc(NC(=O)Nc4ccccc4)c3)cc12` [Compound 8a, 1-(4-(3-Methoxy-1H-indazol-5-yl)pyridin-2-yl)-3-phenylurea], the melting point is 218 to 221 °C. In the data set with HCT116 cancer cell line, this compound yielded a GI50 of 1.19 ± 0.035 µM. Moreover, the “cell growth inhibitory effect on normal cells” value (“cell growth inhibitory effect” for short) in the data set with normal cell line HEK293 was “excellent safety profiles; also recorded: low cytotoxicity”. This compound registered a 50% growth inhibitory concentration (GI50) with MCF7 cancer cell line [1] of 0.06 ± 0.014 µM. For the same compound, in the data set on MCF7 cancer cell line [1] (MCF7 cancer cell line, ratio of GI50 values), the “potency compared to the positive control drug Irinotecan” value turned out to be 6 fold.

Regarding `O=C(Nc1cccc(F)c1)Nc1cc(-c2ccc3cncnc3c2)ccn1` [Compound 4b, 1-(3-Fluorophenyl)-3-(4-(quinazolin-7-yl)pyridin-2-yl)urea], the GI50 in the data set on HCT116 cancer cell line and in the data set on MCF7 cancer cell line [1] was more than 10 µM in each case.

Compound `COc1n[nH]c2ccc(-c3ccnc(NC(=O)NC4CCCC4)c3)cc12` [Compound 8g, 1-Cyclopentyl-3-(4-(3-methoxy-1H-indazol-5-yl)pyridin-2-yl)urea] returned a melting point of 222 to 225 °C. In the data set on HCT116 cancer cell line, the GI50 was determined as 1.25 ± 0.037 µM. In the data set on MCF7 cancer cell line [1], this compound showed a GI50 of 1.17 ± 0.059 µM.

Consider `O=C(Nc1cc(-c2ccc3cncnc3c2)ccn1)NC1CCCC1` [Compound 4j, 1-Cyclopentyl-3-(4-(quinazolin-7-yl)pyridin-2-yl)urea], for which the melting point fell in the range of 223 to 226 °C. Besides, the GI50 with HCT116 cancer cell line is more than 10 µM. Moreover, the GI50 in the data set with MCF7 cancer cell line [1] was more than 10 µM.

Regarding `COc1n[nH]c2ccc(-c3ccnc(NC(=O)NCc4ccccc4)c3)cc12` [Compound 8h, 1-Benzyl-3-(4-(3-methoxy-1H-indazol-5-yl)pyridin-2-yl)urea], the melting point was in the range of 230 to 233 °C. In the data set with HCT116 cancer cell line, this compound displayed a GI50 of 0.33 ± 0.042 µM. The “cell growth inhibitory effect” value in the data set on normal cell line HEK293 is “excellent safety profiles; also recorded: low cytotoxicity”. Besides, halving of growth in the data set with MCF7 cancer cell line [1] (GI50) required 0.23 ± 0.015 µM.

In the case of `COc1n[nH]c2ccc(-c3ccnc(NC(=O)NCCc4ccc(F)cc4)c3)cc12` [Compound 8k, 1-(4-Fluorophenethyl)-3-(4-(3-methoxy-1H-indazol-5-yl)pyridin-2-yl)urea], the melting point fell in the range of 209 to 212 °C. Besides, the GI50 in the data set with HCT116 cancer cell line was found to be 1.38 ± 0.086 µM. Further, growth in the data set on MCF7 cancer cell line [1] was halved (GI50) at 1.13 ± 0.003 µM.

For the compound `O=C(Nc1cccc(C(F)(F)F)c1)Nc1cc(-c2ccc3cncnc3c2)ccn1` [Compound 4f, 1-(4-(Quinazolin-7-yl)pyridin-2-yl)-3-(3-(trifluoromethyl)phenyl)urea], the melting point fell in the range of 328 to 331 °C. Besides, in the data set on HCT116 cancer cell line, the concentration for 50% growth inhibition (GI50) was more than 10 µM. This compound also displayed a GI50 in the data set with MCF7 cancer cell line [1] of more than 10 µM.

Turning to `O=C(Nc1cccc(OC(F)(F)F)c1)Nc1cc(-c2ccc3cncnc3c2)ccn1` [Compound 4g, 1-(4-(Quinazolin-7-yl)pyridin-2-yl)-3-(3-(trifluoromethoxy)phenyl)urea], the GI50 with HCT116 cancer cell line and in the data set with MCF7 cancer cell line [1] was more than 10 µM throughout.

`COc1n[nH]c2ccc(-c3ccnc(NC(=O)Nc4cccc(F)c4)c3)cc12` [Compound 8b, 1-(3-Fluorophenyl)-3-(4-(3-methoxy-1H-indazol-5-yl)pyridin-2-yl)urea] registered a melting point of 229 to 232 °C. Besides, the GI50 in the data set on HCT116 cancer cell line is more than 10 µM. The GI50 with MCF7 cancer cell line [1] was more than 10 µM.

Take `O=C(Nc1ccc(F)cc1)Nc1cc(-c2ccc3cncnc3c2)ccn1` [Compound 4c, 1-(4-Fluorophenyl)-3-(4-(quinazolin-7-yl)pyridin-2-yl)urea]: the GI50 in the data set on HCT116 cancer cell line and with MCF7 cancer cell line [1] was more than 10 µM in each case.

For the compound `CNC(=O)c1cc(Oc2ccc(NC(=O)Nc3ccc(Cl)c(C(F)(F)F)c3)cc2)ccn1` [Sorafenib], in the data set with MCF7 cancer cell line [2], the 50% growth inhibitory concentration (GI50) was 11.2 µM.

`COc1n[nH]c2ccc(-c3ccnc(NC(=O)NCCc4ccccc4)c3)cc12` [Compound 8i, 1-(4-(3-Methoxy-1H-indazol-5-yl)pyridin-2-yl)-3-phenethylurea] returned a melting point of 200 to 203 °C. This compound also returned a GI50 in the data set with HCT116 cancer cell line of 1.08 ± 0.006 µM. Besides, in the data set on normal cell line HEK293, the “cell growth inhibitory effect” value is reported as “excellent safety profiles; also recorded: low cytotoxicity”. Moreover, in the data set on MCF7 cancer cell line [1], the GI50 is 0.16 ± 0.013 µM.

`COc1n[nH]c2ccc(-c3ccnc(NC(=O)Nc4ccc(F)cc4)c3)cc12` [Compound 8c, 1-(4-Fluorophenyl)-3-(4-(3-methoxy-1H-indazol-5-yl)pyridin-2-yl)urea] showed a melting point of 229 to 232 °C. Also, halving of growth in the data set on HCT116 cancer cell line (GI50) required 1.22 ± 0.141 µM. For the same compound, the GI50 with MCF7 cancer cell line [1] is 3.73 ± 0.075 µM.

The compound `COc1cccc(NC(=O)Nc2cc(-c3ccc4[nH]nc(OC)c4c3)ccn2)c1` [Compound 8d, 1-(4-(3-Methoxy-1H-indazol-5-yl)pyridin-2-yl)-3-(3-methoxyphenyl)urea] yielded a melting point of 230 to 233 °C. In the data set with HCT116 cancer cell line, this compound yielded a GI50 of more than 10 µM. For the same compound, the GI50 with MCF7 cancer cell line [1] amounted to 1.89 ± 0.26 µM.

On to `COc1n[nH]c2ccc(-c3ccnc(NC(=O)NCCc4ccccc4F)c3)cc12` [Compound 8j, 1-(2-Fluorophenethyl)-3-(4-(3-methoxy-1H-indazol-5-yl)pyridin-2-yl)urea], for which the melting point lay within 208 to 211 °C. The GI50 in the data set on HCT116 cancer cell line was more than 10 µM. The compound further displayed a GI50 in the data set on MCF7 cancer cell line [1] of 0.75 ± 0.142 µM.

As to `CCc1c2c(nc3ccc(OC(=O)N4CCC(N5CCCCC5)CC4)cc13)-c1cc3c(c(=O)n1C2)COC(=O)[C@]3(O)CC` [Irinotecan, reference compound], the GI50 in the data set with HCT116 cancer cell line is 0.62 ± 0.003 µM; in the data set on MCF7 cancer cell line [1] it was 0.35 ± 0.069 µM.

`O=C(NCCc1ccc(F)cc1)Nc1cc(-c2ccc3cncnc3c2)ccn1` [Compound 4n, 1-(4-Fluorophenethyl)-3-(4-(quinazolin-7-yl)pyridin-2-yl)urea] came in with a melting point of 214 to 217 °C. This compound also showed a GI50 in the data set with HCT116 cancer cell line of more than 10 µM. Further, the concentration for 50% growth inhibition (GI50) with MCF7 cancer cell line [1] is more than 10 µM.

With `O=C(NCCc1ccccc1F)Nc1cc(-c2ccc3cncnc3c2)ccn1` [Compound 4m, 1-(2-Fluorophenethyl)-3-(4-(quinazolin-7-yl)pyridin-2-yl)urea], the melting point was 272 to 275 °C. Besides, the GI50 in the data set with HCT116 cancer cell line was more than 10 µM. Further, in the data set with MCF7 cancer cell line [1], the 50% growth inhibitory concentration (GI50) is more than 10 µM.

Compound `C=CCNC(=O)Nc1cc(-c2ccc3cncnc3c2)ccn1` [Compound 4i, 1-Allyl-3-(4-(quinazolin-7-yl)pyridin-2-yl)urea] displayed a melting point of 190 to 193 °C. The compound further showed a GI50 with HCT116 cancer cell line of more than 10 µM. In addition, in the data set with MCF7 cancer cell line [1], the GI50 came out at 3.35 ± 0.101 µM.

`COc1ccc(NC(=O)Nc2cc(-c3ccc4[nH]nc(OC)c4c3)ccn2)cc1` [Compound 8e, 1-(4-(3-Methoxy-1H-indazol-5-yl)pyridin-2-yl)-3-(4-methoxyphenyl)urea] came in with a melting point of 240 to 242 °C. In the data set on HCT116 cancer cell line, the GI50 is more than 10 µM. Halving of growth in the data set on MCF7 cancer cell line [1] (GI50) required 4.37 ± 0.359 µM.

For `COc1ccc(NC(=O)Nc2cc(-c3ccc4cncnc4c3)ccn2)cc1` [Compound 4e, 1-(4-Methoxyphenyl)-3-(4-(quinazolin-7-yl)pyridin-2-yl)urea], the GI50 in the data set on HCT116 cancer cell line and in the data set with MCF7 cancer cell line [1] was more than 10 µM throughout.

`O=C(Nc1ccc(F)c(Cl)c1)Nc1cc(-c2ccc3cncnc3c2)ccn1` [Compound 4h, 1-(3-Chloro-4-fluorophenyl)-3-(4-(quinazolin-7-yl)pyridin-2-yl)urea] came in with a melting point of 318 to 321 °C. In addition, the concentration for 50% growth inhibition (GI50) in the data set with HCT116 cancer cell line was more than 10 µM. Further, the GI50 in the data set with MCF7 cancer cell line [1] was more than 10 µM.

In turn, `COc1n[nH]c2ccc(-c3ccnc(NC(=O)Nc4ccc(F)c(Cl)c4)c3)cc12` [Compound 8f, 1-(3-Chloro-4-fluorophenyl)-3-(4-(3-methoxy-1H-indazol-5-yl)pyridin-2-yl)urea] gave a melting point of 300 to 305 °C. In addition, in the data set on HCT116 cancer cell line, the GI50 worked out at 0.92 ± 0.114 µM. In the data set with MCF7 cancer cell line [1], this compound showed a GI50 of 0.89 ± 0.209 µM.

`O=C(NCCc1ccccc1)Nc1cc(-c2ccc3cncnc3c2)ccn1` [Compound 4l, 1-Phenethyl-3-(4-(quinazolin-7-yl)pyridin-2-yl)urea] showed a melting point of 260 to 263 °C. Also, in the data set on HCT116 cancer cell line, the GI50 was more than 10 µM. In the data set on MCF7 cancer cell line [1], this compound had a GI50 of 9 ± 0.347 µM.

For `O=C(Nc1ccccc1)Nc1cc(-c2ccc3cncnc3c2)ccn1` [Compound 4a, 1-Phenyl-3-(4-(quinazolin-7-yl)pyridin-2-yl)urea], the melting point fell in the range of 332 to 335 °C. The GI50 in the data set with HCT116 cancer cell line was more than 10 µM. Besides, the GI50 in the data set on MCF7 cancer cell line [1] is more than 10 µM.

As for `COc1cccc(NC(=O)Nc2cc(-c3ccc4cncnc4c3)ccn2)c1` [Compound 4d, 1-(3-Methoxyphenyl)-3-(4-(quinazolin-7-yl)pyridin-2-yl)urea], the GI50 in the data set on HCT116 cancer cell line and in the data set on MCF7 cancer cell line [1] was more than 10 µM throughout.

For `O=C(NCc1ccccc1)Nc1cc(-c2ccc3cncnc3c2)ccn1` [Compound 4k, 1-Benzyl-3-(4-(quinazolin-7-yl)pyridin-2-yl)urea], the melting point is 221 to 224 °C. This compound came in with a 50% growth inhibitory concentration (GI50) in the data set with HCT116 cancer cell line of more than 10 µM. The GI50 with MCF7 cancer cell line [1] is 3.03 ± 0.061 µM.
